This note sets out measurements from patent US20250171438A1 (Agios Pharmaceuticals, Inc., priority 2022, published 2025).

The assay deals with T1, human PAH with the R408W mutation (Homo sapiens, UniProt P00439, R408W).
T1 construct: expressed in transfected cells
T1 sequence (P00439 1-452 R408W): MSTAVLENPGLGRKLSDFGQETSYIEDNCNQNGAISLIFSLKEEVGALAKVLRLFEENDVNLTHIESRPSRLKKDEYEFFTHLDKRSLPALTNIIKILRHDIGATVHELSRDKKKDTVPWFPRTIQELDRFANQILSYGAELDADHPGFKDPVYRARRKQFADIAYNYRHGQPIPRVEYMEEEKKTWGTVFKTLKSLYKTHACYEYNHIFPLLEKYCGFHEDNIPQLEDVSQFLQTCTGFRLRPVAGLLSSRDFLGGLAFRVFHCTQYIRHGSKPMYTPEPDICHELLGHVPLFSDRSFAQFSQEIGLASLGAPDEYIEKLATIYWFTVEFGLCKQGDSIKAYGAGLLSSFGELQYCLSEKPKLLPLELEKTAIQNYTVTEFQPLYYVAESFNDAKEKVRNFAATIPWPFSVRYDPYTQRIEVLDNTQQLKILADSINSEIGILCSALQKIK
In words: Cell Based Phenylalanine Flux Assay. Set-up: scale not given here. The note with it: A375 cells expressing human R408W PAH, 13C-Tyrosine by LC-MS, average where tested multiple times.

[1] abbreviates: 24 hrs with compound, read-out: AC50.
Where [2] appears, read: 24 hrs compound incubation, read-out: AC50.

The structures appear in SMILES notation. Where two headings read alike, the source gives them in different places.

One may read the AC50 as the concentration giving half of the maximal activity seen. With `O=C(CCc1nccs1)N1CCc2[nH]cnc2C1c1nc2c(Br)cccc2s1` (centres unmarked), the AC50 under setting [1] is 1000 to 5000 nM.
With `O=C(c1oc(C2CC2)nc1C(F)(F)F)N1CCc2[nH]cnc2[C@@H]1c1nc2ccccc2s1` [Example 2164, (R)-(4-(benzo[d]thiazol-2-yl)-6,7-dihydro-1H-imidazo[4,5-c]pyridin-5(4H)-yl)(2-cyclopropyl-4-(trifluoromethyl)oxazol-5-yl)methanone], the AC50 under setting [2] is less than 500 nM.
On the same count and under the same terms, then `Cc1ncoc1C(=O)N1CC2(CC2)c2[nH]cnc2[C@@H]1c1nc2ccccc2s1` [Example 1578, (R)-(4′-(benzo[d]thiazol-2-yl)spiro[cyclopropane-1,7′-imidazo[4,5-c]pyridin]-5′(1′H,4′H,6′H)-yl)(4-methyloxazol-5-yl)methanone], with more than 5000 nM.
As to `O=C(C1CN(CC(F)(F)F)C1)N1CCc2[nH]cnc2C1c1nc2c(F)cccc2s1` (centres unmarked), the AC50 under setting [1] is 1000 to 5000 nM.
As for `O=C(C1CC1)N1CCc2[nH]cnc2[C@H]1c1nc2ccc(Br)cc2[nH]1` [Example 952, (S)-(4-(6-bromo-1H-benzo[d]imidazol-2-yl)-6,7-dihydro-1H-imidazo[4,5-c]pyridin-5(4H)-yl)(cyclopropyl)methanone], the AC50 under setting [2] lay in the range of 500 to 1000 nM.
Consider `O=C(c1nnc(N2CCOCC2)o1)N1CCc2[nH]cnc2[C@@H]1c1nc2ccccc2s1` [Example 1586, (R)-(4-(benzo[d]thiazol-2-yl)-6,7-dihydro-1H-imidazo[4,5-c]pyridin-5(4H)-yl)(5-morpholino-1,3,4-oxadiazol-2-yl)methanone], for which, under setting [2], the half-maximal activity concentration (AC50) is 1000 to 5000 nM.
On the same count and under the same terms, the figure for `Cc1nc(C(C)(C)O)oc1C(=O)N1CCc2[nH]cnc2[C@@H]1c1nc2c(C(F)(F)F)cccc2s1` [Example 2116, (R)-(2-(2-hydroxypropan-2-yl)-4-methyloxazol-5-yl)(4-(4-(trifluoromethyl)benzo[d]thiazol-2-yl)-6,7-dihydro-1H-imidazo[4,5-c]pyridin-5(4H)-yl)methanone] is 1000 to 5000 nM.
The same measure, in the same setting: then `N#Cc1ncoc1C(=O)N1CCc2[nH]cnc2[C@@H]1c1nc2ccccc2s1` [Example 1584, (R)-5-(4-(benzo[d]thiazol-2-yl)-4,5,6,7-tetrahydro-1H-imidazo[4,5-c]pyridine-5-carbonyl)oxazole-4-carbonitrile], with more than 5000 nM.
For `O=C(c1n[nH]c2ccccc12)N1CCc2[nH]cnc2C1c1nc2cccc(F)c2s1` (centres unmarked), under setting [1], the AC50 was 1000 to 5000 nM.
As to `O=C(c1nc(Cl)cs1)N1CCc2[nH]cnc2[C@@H]1c1nc2ccccc2s1` [Example 1058, (R)-(4-(benzo[d]thiazol-2-yl)-6,7-dihydro-1H-imidazo[4,5-c]pyridin-5(4H)-yl)(4-chlorothiazol-2-yl)methanone], under setting [2], the concentration at half-maximal activity (AC50) lay in the range of 1000 to 5000 nM.
In the case of `O=C(c1oc(-c2ccccn2)nc1C(F)(F)F)N1CCc2[nH]cnc2C1c1nc2ccccc2s1` (centres unmarked), the AC50 entry (24 hrs with compound) was “E, E”.
As for `Cc1nc(-c2cnn(CC(F)(F)F)c2)oc1C(=O)N1CCc2[nH]cnc2[C@@H]1c1nc2c(F)cccc2s1` [Example 1505, (R)-(4-(4-fluorobenzo[d]thiazol-2-yl)-6,7-dihydro-1H-imidazo[4,5-c]pyridin-5(4H)-yl)(4-methyl-2-(1-(2,2,2-trifluoroethyl)-1H-pyrazol-4-yl)oxazol-5-yl)methanone], the AC50 under setting [2] was 1000 to 5000 nM.
Regarding `O=C(Cc1nc(C(F)(F)F)cs1)N1CCc2[nH]cnc2[C@H]1c1nc2ccccc2[nH]1` [(S)-1-(4-(1H-benzo[d]imidazol-2-yl)-1,4,6,7-tetrahydro-5H-imidazo[4,5-c]pyridin-5-yl)-2-(4-(trifluoromethyl)thiazol-2-yl)ethan-1-one], the AC50 under setting [1] was 1000 to 5000 nM.
As to `O=C(c1cnn2cc(Br)ccc12)N1CCc2[nH]cnc2C1c1nc2ccc(F)cc2s1` (centres unmarked), the AC50 under setting [1] is more than 5000 nM.
Regarding `O=C(c1ccn(-c2ccccn2)n1)N1CCc2[nH]cnc2C1c1nc2c(F)cccc2s1` (centres unmarked), under setting [1], the AC50 was more than 5000 nM.
`Cn1nc(C(=O)N2CCc3[nH]cnc3[C@@H]2c2nc3ccccc3s2)c2ccccc21` [Example 1526, (R)-(4-(benzo[d]thiazol-2-yl)-6,7-dihydro-1H-imidazo[4,5-c]pyridin-5(4H)-yl)(1-methyl-1H-indazol-3-yl)methanone]: under setting [2], the AC50 is 1000 to 5000 nM.
For `O=C(c1cnn2ccc(Br)cc12)N1CCc2[nH]cnc2[C@@H]1c1nc2c(F)cccc2s1` [Example 1172, (R)-(5-bromopyrazolo[1,5-a]pyridin-3-yl)(4-(4-fluorobenzo[d]thiazol-2-yl)-6,7-dihydro-1H-imidazo[4,5-c]pyridin-5(4H)-yl)methanone], the AC50 under setting [2] was 500 to 1000 nM.
The same measure, in the same setting: then `O=C(c1nncs1)N1CCc2[nH]cnc2[C@@H]1c1nc2ccccc2s1` [Example 1067, (R)-(4-(benzo[d]thiazol-2-yl)-6,7-dihydro-1H-imidazo[4,5-c]pyridin-5(4H)-yl)(1,3,4-thiadiazol-2-yl)methanone], with more than 5000 nM.
As to `O=C(c1nnc(CCNC2CC2)o1)N1CCc2[nH]cnc2C1c1nc2ccccc2s1` (centres unmarked), under setting [1], the AC50 was more than 5000 nM.
On to `O=C(c1cnc(-c2ccccn2)o1)N1CCc2[nH]cnc2[C@H]1c1nc2ccccc2s1` [Example 1317], for which, under setting [2], the AC50 is less than 500 nM.
On to `Cc1ccc2sc([C@H]3c4nc[nH]c4CCN3C(=O)c3cnco3)nc2c1` [Example 2174, (R)-(4-(5-methylbenzo[d]thiazol-2-yl)-6,7-dihydro-1H-imidazo[4,5-c]pyridin-5(4H)-yl)(oxazol-5-yl)methanone], for which the AC50 under setting [2] was more than 5000 nM.
With `O=C(c1cnn(CC2CC2)c1Cl)N1CCc2[nH]cnc2[C@@H]1c1nc2c(F)cccc2s1` [Example 1972, (R)-(5-chloro-1-(cyclopropylmethyl)-1H-pyrazol-4-yl)(4-(4-fluorobenzo[d]thiazol-2-yl)-6,7-dihydro-1H-imidazo[4,5-c]pyridin-5(4H)-yl)methanone], the AC50 under setting [2] is 1000 to 5000 nM.
Regarding `O=C(c1cnc(-c2c(F)cccc2F)s1)N1CCc2[nH]cnc2[C@@H]1c1nc2c(F)cccc2s1` [Example 1503, (R)-(2-(2,6-difluorophenyl)thiazol-5-yl)(4-(4-fluorobenzo[d]thiazol-2-yl)-6,7-dihydro-1H-imidazo[4,5-c]pyridin-5(4H)-yl)methanone], under setting [2], the AC50 is less than 500 nM.
Consider `Cn1nc(C(=O)N2CCc3[nH]cnc3[C@H]2c2nc3ccccc3s2)c2ccccc21` [Example 1525], for which the AC50 under setting [2] fell in the range of 500 to 1000 nM.
Still for that read-out and setting: the figure for `CC(C)(c1nc(C(F)F)c(C(=O)N2CCc3[nH]cnc3[C@@H]2c2nc3c(F)cccc3s2)o1)S(C)(=O)=O` [Example 2006, (R)-(4-(difluoromethyl)-2-(2-(methylsulfonyl)propan-2-yl)oxazol-5-yl)(4-(4-fluorobenzo[d]thiazol-2-yl)-6,7-dihydro-1H-imidazo[4,5-c]pyridin-5(4H)-yl)methanone] is 1000 to 5000 nM.
On the same count and under the same terms, then `O=C(Cc1nccs1)N1CCc2[nH]cnc2[C@@H]1c1nc2ccccc2s1` [Example 1038, (R)-1-(4-(benzo[d]thiazol-2-yl)-6,7-dihydro-1H-imidazo[4,5-c]pyridin-5(4H)-yl)-2-(thiazol-2-yl)ethenone], with more than 5000 nM.
As for `O=C(c1cn[nH]c1)N1CCc2nc[nH]c2C1c1nc2c(F)cccc2s1` (centres unmarked), the AC50 under setting [1] is 1000 to 5000 nM.
As to `O=C(Cc1noc2ccccc12)N1CCc2[nH]cnc2C1c1nc2ccccc2[nH]1` (centres unmarked), the AC50 under setting [1] is more than 5000 nM.
`Cn1ccc(-c2nnc(C(=O)N3CCc4[nH]cnc4[C@@H]3c3nc4c(F)cccc4s3)o2)n1` [Example 1825, (R)-(4-(4-fluorobenzo[d]thiazol-2-yl)-6,7-dihydro-1H-imidazo[4,5-c]pyridin-5(4H)-yl)(5-(1-methyl-1H-pyrazol-3-yl)-1,3,4-oxadiazol-2-yl)methanone]: under setting [2], the AC50 fell in the range of 500 to 1000 nM.
